Here are results for eight molecules from patent US4027039A (priority 1975, dated 1977).

The test system of experiment [1] is Influenza B Massachusetts virus. The experiment is described as follows: Influenza B Mass. in mice, oral; late read day 5 (Table 39), 7 (Table 40), 11 (Tables 61, 65); control fraction 16/20 (Table 61), else 100%. In kind it is in vivo, mouse. On the procedure:
A portion of a commercially available sample of amantadine was recrystallized from isopropanol. The activity of the material against Influenza B Mass. was tested for the sample as obtained, the recrystallized portion, and the mother liquor obtained from recrystallizing the portion.

In experiment [2] the test system is Influenza, Ann Arbor virus. As to the kind of experiment: Influenza Ann Arbor in mice, oral; schedule by table; late read day 5 (Tables 15, 25, 29, 30), 6 (18, 20, 22, 23, 26, 27, 28, 54), 7 (14, 19, 21, 24, 53, 56), 8 (16, 17, 51), 9 (11, 55). In kind it is in vivo, mouse.

Each structure is given as a SMILES string. Like-named read-outs stand apart in the source and are kept apart here.

Consider `NNC(=S)NC12CC3CC(CC(C3)C1)C2`, for which the “No. animals surviving when 18/20 of controls are dead” value is recorded as 1 with Herpes virus (total dose 4 pg); 1 in the experiment on Herpes virus (total dose 40 pg); 3 with Herpes virus (total dose 400 pg); 2 in the experiment on Herpes virus (total dose 4 ng); 2 in the experiment on Herpes virus (total dose 40 ng); 3 with Herpes virus (total dose 400 ng). For the same molecule, the Survivors amounted to 1 in the experiment with Herpes virus (total dose 4 pg); 1 with Herpes virus (total dose 40 pg); 3 in the experiment with Herpes virus (total dose 400 pg); 2 in the experiment with Herpes virus (total dose 4 ng); 2 in the experiment on Herpes virus (total dose 40 ng); 3 in the experiment with Herpes virus (total dose 400 ng).
Regarding `NC(=S)NN=C1CCCCC1` [Cyclohexanone, thiosemicarBazone, Cyclohexanone, thiosemicarbazone], the “No. animals surviving after 5 days (Table 61: 11 days)” value in experiment [1] (total dose .000005 μg (5 pg)) was 7; in experiment [1] (total dose .00005 μg (50 pg)), 4; in experiment [1] (total dose .0005 μg (500 pg)) it was 2; in experiment [1] (total dose .005 μg (5 ng)) it was 3; in experiment [1] (total dose .05 μg (50 ng)), 7; in experiment [1] (total dose .5 μg (500 ng)), 2. Besides, the “No. animals surviving when 100% (Table 61: 16/20) of controls are dead” value in experiment [1] (total dose .000005 μg (5 pg)) is listed as 5; in experiment [1] (total dose .00005 μg (50 pg)), 3; in experiment [1] (total dose .0005 μg (500 pg)) it was 2; in experiment [1] (total dose .005 μg (5 ng)), 2; in experiment [1] (total dose .05 μg (50 ng)) it was 7; in experiment [1] (total dose .5 μg (500 ng)), 1. Also, the Survivors is 5 in experiment [1] (total dose .000005 μg (5 pg)); 2 in experiment [1] (total dose .00005 μg (50 pg)); 2 in experiment [1] (total dose .0005 μg (500 pg)); 2 in experiment [1] (total dose .005 μg (5 ng)); 5 in experiment [1] (total dose .05 μg (50 ng)); 1 in experiment [1] (total dose .5 μg (500 ng)).
As for `N#CCC(=O)NN` [Cyonacetic Acid Carbazide, Cyanoacetic Acid Hydrazide], the “No. animals surviving after 5 days (Table 61: 11 days)” value came out at 3 in experiment [1] (total dose .000005 μg (5 pg)); 4 in experiment [1] (total dose .00005 μg (50 pg)); 8 in experiment [1] (total dose .0005 μg (500 pg)); 2 in experiment [1] (total dose .005 μg (5 ng)); 4 in experiment [1] (total dose .05 μg (50 ng)); 5 in experiment [1] (total dose .5 μg (500 ng)). For the same molecule, the “No. animals surviving when 100% (Table 61: 16/20) of controls are dead” value in experiment [1] (total dose .000005 μg (5 pg)) stood at 3; in experiment [1] (total dose .00005 μg (50 pg)), 4; in experiment [1] (total dose .0005 μg (500 pg)), 5; in experiment [1] (total dose .005 μg (5 ng)) it was 2; in experiment [1] (total dose .05 μg (50 ng)), 4; in experiment [1] (total dose .5 μg (500 ng)), 4. Moreover, the Survivors in experiment [1] (total dose .000005 μg (5 pg)) turned out to be 3; in experiment [1] (total dose .00005 μg (50 pg)) it was 4; in experiment [1] (total dose .0005 μg (500 pg)) it was 5; in experiment [1] (total dose .005 μg (5 ng)), 1; in experiment [1] (total dose .05 μg (50 ng)), 3; in experiment [1] (total dose .5 μg (500 ng)), 4.
With `NNc1nncc2ccccc12` [Hydralazine, hydralazine, reference compound], the activity in words result in the experiment with Herpes virus (mouse, in vivo) is listed as “effective”.
`NC12CC3CC(CC(C3)C1)C2` [Recrystallized amantadine, amantadine, reference compound]: the “No. animals surviving after 11 days” value in experiment [1] (total dose 60 ng) worked out at 4; in experiment [1] (total dose 600 ng), 3; in experiment [1] (total dose 6 μg), 5; in experiment [1] (total dose 60 μg), 5; in experiment [1] (total dose 600 μg), 3; in experiment [1] (total dose 6 mg), 6. For the same molecule, the Survivors is 2 in experiment [1] (total dose 60 ng); 3 in experiment [1] (total dose 600 ng); 5 in experiment [1] (total dose 6 μg); 2 in experiment [1] (total dose 60 μg); 2 in experiment [1] (total dose 600 μg); 4 in experiment [1] (total dose 6 mg).
In the case of `CCOC(=O)CC(C)=NNC(N)=S` [acetoacetic acid, ethyl ester, thiosemicarbazone], the “No. animals surviving after 5-7 days” value is on record as 8 in experiment [2] (total dose 30 pg); 4 in experiment [2] (total dose 300 pg); 5 in experiment [2] (total dose 3 ng); 5 in experiment [2] (total dose 30 ng); 4 in experiment [2] (total dose 300 ng); 6 in experiment [2] (total dose 3 μg). Further, the figures for the “No. animals surviving after 5-7 days” value in experiment [2] (total dose 30 μg), in experiment [2] (total dose 300 μg) and in experiment [2] (total dose 3 mg) were 8, 7 and 5, respectively. For the same molecule, the Survivors in experiment [2] (total dose 30 pg), in experiment [2] (total dose 300 pg), in experiment [2] (total dose 3 ng), in experiment [2] (total dose 30 ng), in experiment [2] (total dose 300 ng) and in experiment [2] (total dose 3 μg) was 0 throughout. Further, the Survivors in experiment [2] (total dose 30 μg), in experiment [2] (total dose 300 μg) and in experiment [2] (total dose 3 mg) was 0 each time.
As for `CC(C)=NNC(N)=S` [acetone, thiosemicarbazone], the “No. animals surviving after 5-7 days” value amounted to 3 in experiment [2] (total dose 30 pg); 2 in experiment [2] (total dose 300 pg); 2 in experiment [2] (total dose 3 ng); 2 in experiment [2] (total dose 30 ng); 3 in experiment [2] (total dose 300 ng); 5 in experiment [2] (total dose 3 μg). Further, the results for the “No. animals surviving after 5-7 days” value in experiment [2] (total dose 30 μg) and in experiment [2] (total dose 300 μg) were 2 and 3, respectively. Moreover, the Survivors in experiment [2] (total dose 30 pg) came to 1; in experiment [2] (total dose 300 pg), 0; in experiment [2] (total dose 3 ng), 0; in experiment [2] (total dose 30 ng) it was 0; in experiment [2] (total dose 300 ng), 0; in experiment [2] (total dose 3 μg) it was 0. Besides, the Survivors in experiment [2] (total dose 30 μg) and in experiment [2] (total dose 300 μg) was 0 in each case.
Turning to `Cc1ccccc1NC(=S)NN=C1CCCC1` [cyclopentanone, 3-thio-4-o-tolyl-semicarbazone], the “No. animals surviving after 5-7 days” value in experiment [2] (total dose 30 pg) was determined as 6; in experiment [2] (total dose 300 pg) it was 9; in experiment [2] (total dose 3 ng) it was 9; in experiment [2] (total dose 30 ng) it was 9; in experiment [2] (total dose 300 ng), 6; in experiment [2] (total dose 3 μg) it was 6. Also, the results for the “No. animals surviving after 5-7 days” value in experiment [2] (total dose 300 μg) and in experiment [2] (total dose 3 mg) were 9 and 8, respectively. The Survivors in experiment [2] (total dose 30 pg), in experiment [2] (total dose 300 pg), in experiment [2] (total dose 3 ng), in experiment [2] (total dose 300 ng), in experiment [2] (total dose 3 μg) and in experiment [2] (total dose 30 μg) was 0 each time. In addition, the Survivors in experiment [2] (total dose 300 μg) and in experiment [2] (total dose 3 mg) was 0 each time.
